Several values for one entry are separate records, joined by “and”; a condition that tells them apart may be missing. Equal entries are not always repeated.
Experiments:
[1] = biological target: T1, TRPA1 channels (Homo sapiens, UniProt O75762); assay: TRP Family FLIPR Assay, TRPA1; format: cell-based; conditions: CHO cells
T1 construct: expressed in transfected cells; host or cells: CHO
Procedure: (§1) The compound of Example 5 was tested for selectivity against a panel of Human TRP family ion channels in a TRP Family FLIPR Assay as described below. • 1. TRPC3 channels (human TRPC3 variant 1 gene, expressed in HEK293 cells). • 2. TRPC4 channels (human TRPC4 gene, expressed in HEK293 cells). • 3. TRPC5 channels (human TRPC5 gene, expressed in HEK293 cells). • 4. TRPC6 channels (human TRPC6 gene, expressed in HEK293 cells). • 5. TRPM2 channels (human TRPM2 gene, transiently expressed in HEK293 cells). • 6. TRPM3 channels (human TRPM3 gene, transiently expressed in HEK293 cells). • 7. TRPM4 channels (human TRPM4 gene, expressed in CHO cells). • 8. […]
(§2) Data acquisition was performed via the FLIPR Control software supplied with the FLIPR System (MDS-AT) and data was analyzed using Microsoft Excel (Microsoft Corp., Redmond, WA) or GraphPad Prism. […]
(§3) [formula] where Base is the response at low concentrations of test article, Max is the maximum response at high concentrations, xhalf the EC50, or IC50, the concentration of test article producing either half-maximal activation or inhibition, and rate is the Hill coefficient. […] No assumptions about the fit parameters was made; the fit parameters were determined by the algorithm.
(§4) The effect of each test article was evaluated at eight (8) concentrations: 0.003, 0.01, 0.03, 0.1, 0.3, 1, 3 and 10 μM, n≤4 wells/concentration). […]

[2] = system: Hepatocytes; assay: Hepatocytes predicted clearance, rat
[3] = biological target: T2, TRPV5 channels (Homo sapiens, UniProt Q9NQA5); assay: TRP Family FLIPR Assay, TRPV5; format: cell-based; conditions: antagonist mode; activated with 60 μM cadmium ion; HEK293 cells (transient); 0.003-10 μM; read-out: IC50 hTRPV5
T2 construct: expressed in transfected cells; host or cells: HEK293 (transient)
Procedure: as §1, §2, §3, §4

[4] = biological target: recombinant human CYP3A4 enzyme (Homo sapiens, UniProt P08684); assay: CYP3A4 incubation assay; format: in vitro ADME
Procedure: Example 24. CYP3A4 Incubation Assay
Compounds (final concentration […]) were incubated in 100 mM phosphate buffer containing 100 pmol/mL recombinant human CYP3A4 enzyme for 0, 5, 10, 15 and 25 minutes.
Testosterone was used as positive control. Reaction was initiated by the addition of NADPH (final concentration […]) and carried out at 37° C. The reaction was stopped by the addition of 4 volumes of cold acetonitrile (with 100 nM alprazolam, 200 nM labetalol, 200 nM imipramine and 2 μM ketoprofen as internal standards). Samples were centrifuged at 3,220 g for 40 minutes to precipitate protein. 70 μL supernatant was transferred to the analysis plate containing 110 μL of acetonitrile for LC-MS/MS analysis.
The following table indicates the percentage remaining for the indicated examples after incubation with recombinant Human CYP3A4 after 25 minutes under the same conditions as described for Example […].

[5] = biological target: T3, TRPM4 channels (Homo sapiens, UniProt Q8TD43); assay: TRP Family FLIPR Assay, TRPM4; format: cell-based; conditions: CHO cells
T3 construct: expressed in transfected cells; host or cells: CHO
Procedure: as §1, §2, §3, §4

Chain of recombinant human CYP3A4 enzyme (P08684 whole entry): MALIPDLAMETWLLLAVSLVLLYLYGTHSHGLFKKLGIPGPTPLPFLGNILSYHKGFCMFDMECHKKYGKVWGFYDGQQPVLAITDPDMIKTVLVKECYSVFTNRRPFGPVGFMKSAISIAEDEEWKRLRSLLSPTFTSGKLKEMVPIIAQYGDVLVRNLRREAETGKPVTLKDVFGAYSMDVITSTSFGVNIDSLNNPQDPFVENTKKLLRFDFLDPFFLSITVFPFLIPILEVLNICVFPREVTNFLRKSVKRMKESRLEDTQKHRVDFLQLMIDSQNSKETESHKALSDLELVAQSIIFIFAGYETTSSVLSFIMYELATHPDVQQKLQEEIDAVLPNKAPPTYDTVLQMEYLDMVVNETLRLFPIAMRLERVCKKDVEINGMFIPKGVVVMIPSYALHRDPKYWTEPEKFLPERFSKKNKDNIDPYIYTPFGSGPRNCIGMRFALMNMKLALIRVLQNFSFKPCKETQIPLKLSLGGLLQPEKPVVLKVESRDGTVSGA
T1 sequence (O75762 whole entry): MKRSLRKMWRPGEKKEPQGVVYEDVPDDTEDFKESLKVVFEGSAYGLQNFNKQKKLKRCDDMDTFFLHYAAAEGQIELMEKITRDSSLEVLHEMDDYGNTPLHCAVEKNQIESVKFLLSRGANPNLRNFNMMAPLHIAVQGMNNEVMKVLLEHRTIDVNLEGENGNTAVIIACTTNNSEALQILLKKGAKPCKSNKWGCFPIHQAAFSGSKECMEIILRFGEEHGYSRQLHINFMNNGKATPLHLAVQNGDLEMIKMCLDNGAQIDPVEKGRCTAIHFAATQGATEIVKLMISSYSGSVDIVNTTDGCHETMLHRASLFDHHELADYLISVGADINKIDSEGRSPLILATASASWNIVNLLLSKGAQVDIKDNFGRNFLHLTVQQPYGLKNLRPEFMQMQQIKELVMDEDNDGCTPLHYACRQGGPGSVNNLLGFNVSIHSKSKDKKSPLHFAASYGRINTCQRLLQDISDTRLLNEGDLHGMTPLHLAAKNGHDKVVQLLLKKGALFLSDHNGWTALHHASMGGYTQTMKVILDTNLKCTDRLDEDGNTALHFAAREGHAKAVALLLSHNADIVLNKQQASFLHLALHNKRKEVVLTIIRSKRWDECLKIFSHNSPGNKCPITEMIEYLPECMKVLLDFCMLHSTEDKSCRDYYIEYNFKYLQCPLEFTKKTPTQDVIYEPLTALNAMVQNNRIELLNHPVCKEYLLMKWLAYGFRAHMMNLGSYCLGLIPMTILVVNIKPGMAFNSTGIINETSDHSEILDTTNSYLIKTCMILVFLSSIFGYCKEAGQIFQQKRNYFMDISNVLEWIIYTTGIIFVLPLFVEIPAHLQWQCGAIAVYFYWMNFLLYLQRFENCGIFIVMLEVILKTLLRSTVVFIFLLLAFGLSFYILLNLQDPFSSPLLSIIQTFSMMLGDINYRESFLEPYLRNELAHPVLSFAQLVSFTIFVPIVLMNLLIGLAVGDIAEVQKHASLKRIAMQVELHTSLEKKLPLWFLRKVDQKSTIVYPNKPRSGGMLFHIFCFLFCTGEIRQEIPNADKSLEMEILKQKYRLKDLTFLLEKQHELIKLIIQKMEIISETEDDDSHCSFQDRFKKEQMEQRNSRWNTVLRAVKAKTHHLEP
T3 sequence (Q8TD43 whole entry): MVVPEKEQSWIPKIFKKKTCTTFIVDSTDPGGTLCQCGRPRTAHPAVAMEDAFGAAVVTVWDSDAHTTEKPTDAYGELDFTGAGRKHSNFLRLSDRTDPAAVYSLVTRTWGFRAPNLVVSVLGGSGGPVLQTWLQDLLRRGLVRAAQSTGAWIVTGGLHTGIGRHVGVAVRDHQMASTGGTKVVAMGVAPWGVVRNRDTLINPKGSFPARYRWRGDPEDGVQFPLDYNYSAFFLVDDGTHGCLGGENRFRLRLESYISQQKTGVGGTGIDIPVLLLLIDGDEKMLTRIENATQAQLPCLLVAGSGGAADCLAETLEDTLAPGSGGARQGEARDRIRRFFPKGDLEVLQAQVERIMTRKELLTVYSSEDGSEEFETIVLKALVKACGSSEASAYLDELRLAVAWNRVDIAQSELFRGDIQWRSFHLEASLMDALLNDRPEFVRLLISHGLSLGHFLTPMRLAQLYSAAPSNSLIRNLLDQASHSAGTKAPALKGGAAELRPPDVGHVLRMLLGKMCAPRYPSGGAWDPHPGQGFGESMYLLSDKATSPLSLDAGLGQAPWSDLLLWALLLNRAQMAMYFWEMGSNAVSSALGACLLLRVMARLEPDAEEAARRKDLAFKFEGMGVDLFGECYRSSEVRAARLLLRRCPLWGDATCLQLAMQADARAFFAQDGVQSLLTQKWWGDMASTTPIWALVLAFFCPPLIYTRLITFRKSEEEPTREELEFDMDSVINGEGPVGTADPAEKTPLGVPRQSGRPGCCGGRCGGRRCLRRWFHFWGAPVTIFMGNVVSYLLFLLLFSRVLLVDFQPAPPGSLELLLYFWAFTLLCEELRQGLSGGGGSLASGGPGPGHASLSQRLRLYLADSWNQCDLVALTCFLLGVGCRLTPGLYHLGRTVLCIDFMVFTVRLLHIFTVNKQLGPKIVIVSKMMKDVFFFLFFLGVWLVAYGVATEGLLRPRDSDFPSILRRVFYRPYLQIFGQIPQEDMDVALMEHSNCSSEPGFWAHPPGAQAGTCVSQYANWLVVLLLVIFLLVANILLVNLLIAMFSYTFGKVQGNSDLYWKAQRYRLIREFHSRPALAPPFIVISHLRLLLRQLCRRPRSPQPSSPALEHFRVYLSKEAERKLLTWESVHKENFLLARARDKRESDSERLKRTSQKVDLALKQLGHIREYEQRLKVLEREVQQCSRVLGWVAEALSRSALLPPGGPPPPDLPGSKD
T2 sequence (Q9NQA5 whole entry): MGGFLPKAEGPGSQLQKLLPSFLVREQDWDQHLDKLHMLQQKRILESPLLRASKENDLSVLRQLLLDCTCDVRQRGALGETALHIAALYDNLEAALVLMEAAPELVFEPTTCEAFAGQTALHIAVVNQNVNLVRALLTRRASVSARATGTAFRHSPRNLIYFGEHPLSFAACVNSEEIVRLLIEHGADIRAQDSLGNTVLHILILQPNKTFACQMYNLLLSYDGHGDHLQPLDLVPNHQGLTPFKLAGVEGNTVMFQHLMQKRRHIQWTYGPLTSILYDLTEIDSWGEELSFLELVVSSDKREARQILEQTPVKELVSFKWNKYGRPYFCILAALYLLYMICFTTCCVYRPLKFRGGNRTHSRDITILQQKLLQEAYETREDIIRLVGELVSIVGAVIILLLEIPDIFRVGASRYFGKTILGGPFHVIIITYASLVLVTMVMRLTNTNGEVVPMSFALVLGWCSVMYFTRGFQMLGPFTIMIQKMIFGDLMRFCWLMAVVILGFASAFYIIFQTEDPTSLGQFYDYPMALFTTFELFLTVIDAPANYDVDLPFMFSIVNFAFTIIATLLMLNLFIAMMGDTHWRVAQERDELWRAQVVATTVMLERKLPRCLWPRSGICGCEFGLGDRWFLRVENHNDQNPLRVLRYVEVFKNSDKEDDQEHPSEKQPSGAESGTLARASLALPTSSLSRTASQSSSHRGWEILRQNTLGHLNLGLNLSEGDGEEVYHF

CC(C)(O)c1cnc(N2C[C@@]3(CC[C@@H](F)[C@](C)(Cn4cnc5ccc(C#N)cc54)C3)OC2=O)cn1 (single isomer, unassigned) [Example 5]
EC50 ([1]; agonist mode, vs EMAX of mustard oil 600 μM, read-out: EC50 hTRPA1): > 10 µM
IC50 ([1]; antagonist mode, activated with mustard oil 80 μM, 0.003-10 μM, read-out: IC50 hTRPA1): > 10 µM
Hepatocytes predicted clearance in rat [2]: 7.67 mL/min/kg
IC50 [3]: > 10 µM
CYP3A4 Clint ([4]; 100 pmol/mL recombinant human CYP3A4, 37° C., 0-25 min): 0.09 μL/min/pmol CYP450 and < 0.07 μL/min/pmol CYP450
Metabolic Stability in Recombinant Human CYP3A4 + NADPH (% remaining after 25 min) ([4]; recombinant Human CYP3A4 + NADPH, 25 min): 100%
EC50 ([5]; agonist mode, vs EMAX of A23187 3.3 μM, read-out: EC50 hTRMP4): > 10 µM
IC50 ([5]; antagonist mode, activated with A23187 10 μM, 0.003-10 μM, read-out: IC50 hTRMP4): > 10 µM
